The record followed here is US20260345517A1, “DOSAGE REGIMENS FOR TREATING STARGARDT DISEASE” (Alkeus Pharmaceuticals, Inc., priority 2024, published 2026).

Entries after “also recorded” stand apart in the source; their conditions may differ.

Common to all, as to assay type: in vivo, human
Series [1] relates to asymptomatic Stargardt disease patients. The series is described as follows: TEASE-3: fundus autofluorescence (FAF) imaging. The note with it: 14 mg daily, two to four years, three patients. As to the method:
(§1) The tolerability and effects of gildeuretinol acetate in Stargardt Disease (Clinical trial group 3 also known as TEASE-3) study was an open-label, multicenter, case control study designed to evaluate the efficacy and safety of gildeuretinol acetate on the progression of Stargardt disease in asymptomatic individuals. The trial was conducted at multiple sites in the United States.
To assess the safety and efficacy of gildeuretinol acetate in preventing vision loss in asymptomatic individuals, gildeuretinol acetate 14 mg capsules was administered to individuals showing early signs of retinal damage while maintaining approximately 20/20 vision and no subjective loss of vision. […]
(§2) Disease progression was monitored by best-corrected visual acuity (BCVA) reported in number of Early Treatment Diabetic Retinopathy Study (ETDRS) letters, fundus autofluorescence (FAF) imaging, loss of photoreceptors (as measured by the ellipsoid zone band loss) by optical coherence tomography (OCT) according to literature (1-3) and retinal sensitivity by microperimetry. […]

For series [2] the test system is unchanged. The series is described as follows: TEASE-3: photoreceptor loss (ellipsoid zone band loss) by optical coherence tomography. The conditions noted are these: 14 mg daily. As to the method:
FIG. 5 is a graph showing retinal photoreceptor loss over time in three asymptomatic Stargardt disease patients taking gildeuretinol acetate 14 mg daily. Lines are piecewise linear regressions with a knot time of 6 months and show the mean area of retinal photoreceptor loss of both eyes. Each symbol represents the area of photoreceptor loss for calculated for one eye. To measure photoreceptor loss, the ellipsoid zone layer was evaluated on b-scans acquired on Heidelberg engineering optical coherence tomography (Heidelberg, Germany).
as §1
(§3) Patients received gildeuretinol acetate 14 mg capsules, to be taken orally once daily. Trial visits occurred every 6 months approximately following screening and treatment start visits.
Disease progression was monitored by best-corrected visual acuity (BCVA) reported in number of Early Treatment Diabetic Retinopathy Study (ETDRS) letters, fundus autofluorescence (FAF) imaging, loss of photoreceptors (as measured by the ellipsoid zone band loss) by optical coherence tomography (OCT) according to literature (1-3) and retinal sensitivity by microperimetry.
Measurements from the left and right eye for each patient were averaged for each visit to produce a single statistical unit for both eyes(4). For segmented linear regressions, knot times were selected so that three visits were included in the first segment.

A short description of series [3]: TEASE-1: plasma gildeuretinol (replacement of plasma vitamin A). The conditions noted are these: for percentage of gildeuretinol over total vitamin A (retinol + gildeuretinol): 8-week pharmacokinetic analysis, plasma. As to the method:
The Tolerability and Effects of gildeuretinol acetate in Stargardt Disease (Clinical trial group 1 also known as TEASE-1) was a 24-month, multicenter, double-masked, placebo-controlled trial designed to evaluate the efficacy and safety of daily oral gildeuretinol acetate in slowing the growth of atrophic retinal lesions in Stargardt disease patients. The trial was conducted at multiple sites in the United States (NCT02402660).
Patients 12 years or older, clinically diagnosed with Stargardt disease, with at least one ABCA4 mutation, at least one eye presenting with well-demarcated areas of reduced fundus autofluorescence, and with any visual acuity, were eligible.
Patients were randomized to gildeuretinol acetate 14 mg capsules, gildeuretinol acetate 24 mg capsules, or placebo capsules, to be taken once daily for one year. After one year, 50% of randomly selected patients receiving placebo were crossed over in a 1:1 ratio to gildeuretinol acetate 14 mg capsules or gildeuretinol acetate 24 mg capsules for a second year.
Gildeuretinol acetate and placebo capsules were identical appearing capsules. Patients were advised to avoid vitamin A-containing supplements and liver-based products. Fruits and vegetables contain beta-carotene, not preformed vitamin A, and could be consumed without limitation. Trial visits occurred at 8 weeks and 6, 12, 18, and 24 months following screening and randomization.

A further series can be described thus: TEASE-3: safety. The note with it: 14 mg daily, three patients. The method, then: as §3
Ocular safety was assessed by retinal imaging and ocular exam, which included evaluation of the anterior and posterior segments and the lens. Systemic safety was assessed by physical exam, comprehensive clinical labs (biochemistry, hematology, lipids), and 12-lead ECG.

Series [4] relates to asymptomatic Stargardt disease patients. The series is described as follows: TEASE-3: retinal sensitivity by fundus-tracking microperimetry. The note with it: 14 mg daily. The method, then: FIG. 4 is a graph showing mean retinal sensitivity (dB) over time in three asymptomatic Stargardt disease patients taking gildeuretinol acetate 14 mg daily. Lines show mean retinal sensitivity of both eyes. Lines are piecewise linear regressions with a knot time of 12 months. Each symbol represents a retinal sensitivity measurement for each eye. Patient 1 retinal sensitivity was measured with a Nidek MP-1 (Nidek, Gamagori, Japan). Patients 2 and 3 retinal sensitivity was measured with the CenterVue Macular Integrity Assessment or MAIA (CenterVue, Padova, Italy).
The tolerability and effects of gildeuretinol acetate in Stargardt Disease (Clinical trial group 3 also known as TEASE-3) study was an open-label, multicenter, case control study designed to evaluate the efficacy and safety of gildeuretinol acetate on the progression of Stargardt disease in asymptomatic individuals. The trial was conducted at multiple sites in the United States. […]
as §2

As to `CC(=O)OC/C=C(C)/C=C/C=C(C)/C=C/C1=C(C)CCCC1(C)C` [gildeuretinol acetate, C20-D3-retinol acetate], the “changes by FAF (flecks, autofluorescence, atrophy)” value in series [1] is on record as “none of the three treated asymptomatic Stargardt disease patients exhibited changes by FAF; also recorded: absence of FAF changes in all three Stargardt disease patients”. In addition, in series [2], the “average area of photoreceptor loss” value was 0.36±0.32 mm^2 and the “average area of photoreceptor loss, share of the foveal area” value is 20%. Also, the “photoreceptor loss, following years of treatment” value in series [2] (after first six months) is reported as “trended toward an improvement”. Besides, the photoreceptor loss rate result in series [2] (first six months, average for two patients) is listed as “approximately 0.18 mm^2/year”. The “photoreceptor loss, third patient” value in series [2] (full treatment period) is recorded as “no photoreceptors were lost”. Moreover, in series [3] (14 mg and 24 mg once daily, about 24 months), the “replacement of vitamin A with gildeuretinol” value was “over 80%”. In series [3] (14 mg and 24 mg, throughout treatment), the “replacement of plasma vitamin A sustained throughout the treatment period” value is given as “greater than 80%”. In series [3] (14 mg), the “percentage of gildeuretinol over total vitamin A (retinol + gildeuretinol)” value was found to be 87%. In addition, the “percentage of gildeuretinol over total vitamin A (retinol + gildeuretinol)” value in series [3] (24 mg) was 92%. Besides, the “replacement of serum vitamin A with gildeuretinol” value in series [3] (14 to 24 mg daily, within a matter of weeks) is reported as “more than 80%”. For the same molecule, the “patients with over 80% of plasma vitamin A replaced” value in series [3] (after six months) is reported as 39 out of 40. Further, the “total plasma vitamin A and retinoic acid (combined vitamin A and gildeuretinol-derived forms) versus placebo” value in series [3] (gildeuretinol acetate vs placebo groups) is listed as “the same”. For the same molecule, the “adverse reactions linked to excessive or insufficient vitamin A” value in “TEASE-3: safety” is “None of the three treated Stargardt disease asymptomatic patients exhibited adverse reactions”. Besides, the “rate of change of mean retinal sensitivity” value in series [4] (first year of treatment) is recorded as −3.1±1.5 dB/year. Also, in series [4] (years following the first year), the “rate of change of mean retinal sensitivity (improvement)” value is “+0.93±0.7 dB/year”.
